# Results published in patent US8906925B2, “Pyrido[4,3-B]indoles containing rigid moieties” (Medivation Technologies, Inc., priority 2008, dated 2014).
# Legend:
# histamine receptor H1 = histamine receptor H1 (Homo sapiens, UniProt P35367); assay: Histamine H1 radioligand binding ([3H]Pyrilamine); settings: for inhibition at 1 µM: read-out: Histamine Binding (1 μM) H1, percent inhibition of specific binding, 1 μM
# In short: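 Values are percent inhibition of specific [3H]pyrilamine (1.2 nM) binding with compounds at ≤1 μM (1% DMSO vehicle); 180 min incubation at 25 °C, pH 7.4 Tris buffer, on CHO-expressed human H1 receptor; 1 μM pyrilamine defined nonspecific binding, bound ligand counted after filtration.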
# [1] = target: T1, human recombinant histamine H2 receptor (Homo sapiens, UniProt P25021); assay: Histamine H2 radioligand binding ([125I]Aminopotentidine); settings: read-out: Histamine Binding (1 μM) H2, percent inhibition of specific binding, 1 μM
# T1 construct: expressed in transfected cells; host or cells: Chinese hamster ovary (CHO) K1 cells
# Experimental: To evaluate in radioligand binding assays the activity of compounds of the invention, human recombinant histamine H2 receptor expressed in Chinese hamster ovary (CHO) K1 cells (Ruat, M., Proc. Natl. Acad. Sci. USA. 87(5):1658, 1990) in a 50 mM Phosphate buffer, pH 7.4 was used. Compounds of the invention were incubated with 0.1 nM [^125I]Aminopotentidine for 120 min. at 25° C. Non-specific binding was estimated in the presence of 3 μM Tiotidine. Receptor proteins were filtered and washed, the filters were then counted to determine [^125I]Aminopotentidine specifically bound.
# [2] = target: human dopamine D2L receptor (Homo sapiens, UniProt P14416); assay: Dopamine D2L radioligand binding ([3H]Spiperone); settings: percent inhibition of specific binding, compound at 1 μM; for inhibition at 1 µM: read-out: Inhibition of ligand binding, Dopamine D2L
# Description: Non-specific binding was estimated in the presence of […] Haloperidol. Receptor proteins were filtered and washed, the filters were then counted to determine [^3H]Spiperone specifically bound. […] Biochemical assay results are presented as the percent inhibition of specific binding in Table 9.
# [3] = target: T2, human recombinant serotonin (5-Hydroxytryptamine) 5-HT2A receptor (Homo sapiens, UniProt P28223); assay: Serotonin 5-HT2A radioligand binding ([3H]Ketanserin); settings: for inhibition at 1 µM: read-out: Inhibition of ligand binding, Serotonin 5-HT2A (percent inhibition of specific binding), compound at 1 μM
# T2 construct: expressed in transfected cells; host or cells: Chinese hamster ovary (CHO-K1) cells
# Experimental: Compounds of the invention were incubated with 0.5 nM [^3H]Ketanserin for 60 min. at 25° C. Non-specific binding was estimated in the presence of 1 μM Mianserin. Receptor proteins were filtered and washed, the filters were then counted to determine [^3H]Ketanserin specifically bound.
# [4] = target: T3, human recombinant serotonin (5-Hydroxytryptamine) 5-HT2C receptor (Homo sapiens, UniProt P28335); assay: Serotonin 5-HT2C radioligand binding ([3H]Mesulergine); settings: read-out: Inhibition of ligand binding, Serotonin 5-HT2C (percent inhibition of specific binding); for inhibition at 1 µM: compound at 1 μM
# T3 construct: expressed in transfected cells; host or cells: Chinese hamster ovary (CHO-K1) cells
# T3 sequence (P28335 33-458): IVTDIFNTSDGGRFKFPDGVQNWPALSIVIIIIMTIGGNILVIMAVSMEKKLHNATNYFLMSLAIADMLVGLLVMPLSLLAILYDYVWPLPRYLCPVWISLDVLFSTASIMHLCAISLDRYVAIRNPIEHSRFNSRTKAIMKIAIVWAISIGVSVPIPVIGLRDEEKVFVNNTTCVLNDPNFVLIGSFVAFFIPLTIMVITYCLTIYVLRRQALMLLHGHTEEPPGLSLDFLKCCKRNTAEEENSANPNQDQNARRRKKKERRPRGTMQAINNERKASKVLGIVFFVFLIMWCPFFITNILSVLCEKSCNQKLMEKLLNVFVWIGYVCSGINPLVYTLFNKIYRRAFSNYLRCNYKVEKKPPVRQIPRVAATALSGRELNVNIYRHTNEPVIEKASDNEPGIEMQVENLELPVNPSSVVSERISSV
# In short: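 Compounds tested at 1 μM or lower (1% DMSO vehicle) for displacement of 1 nM [3H]Mesulergine over 60 min at 25° C. Specific binding determined by filtration counting, with 1 μM Mianserin defining non-specific binding; values are percent inhibition.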
# [5] = target: T4, human recombinant serotonin (5-Hydroxytryptamine) 5-HT6 receptor (Homo sapiens, UniProt P50406); assay: Serotonin 5-HT6 radioligand binding ([3H]LSD); settings: read-out: Inhibition of ligand binding, Serotonin 5-HT6 (percent inhibition of specific binding); for inhibition at 1 µM: compound at 1 μM
# T4 construct: expressed in transfected cells; host or cells: human HeLa cells
# Experimental: Compounds of the invention were incubated with 1.5 nM [3H]Lysergic acid diethylamide (LSD) for 120 min. at 37° C. […] Receptor proteins were filtered and washed, the filters were then counted to determine [3H]LSD specifically bound. Compounds were screened at 1 μM or lower, using 1% DMSO as vehicle. Biochemical assay results are presented as the percent inhibition of specific binding in Table 10.
# [6] = target: human recombinant serotonin (5-Hydroxytryptamine) 5-HT7 receptor (Homo sapiens, UniProt P34969); assay: Serotonin 5-HT7 radioligand binding ([3H]LSD); settings: read-out: Inhibition of ligand binding, Serotonin 5-HT7 (percent inhibition of specific binding); for inhibition at 1 µM: compound at 1 μM
# Description: Receptor proteins were filtered and washed, the filters were then counted to determine [^3H]LSD specifically bound.
# Chain of histamine receptor H1 (P35367 whole entry): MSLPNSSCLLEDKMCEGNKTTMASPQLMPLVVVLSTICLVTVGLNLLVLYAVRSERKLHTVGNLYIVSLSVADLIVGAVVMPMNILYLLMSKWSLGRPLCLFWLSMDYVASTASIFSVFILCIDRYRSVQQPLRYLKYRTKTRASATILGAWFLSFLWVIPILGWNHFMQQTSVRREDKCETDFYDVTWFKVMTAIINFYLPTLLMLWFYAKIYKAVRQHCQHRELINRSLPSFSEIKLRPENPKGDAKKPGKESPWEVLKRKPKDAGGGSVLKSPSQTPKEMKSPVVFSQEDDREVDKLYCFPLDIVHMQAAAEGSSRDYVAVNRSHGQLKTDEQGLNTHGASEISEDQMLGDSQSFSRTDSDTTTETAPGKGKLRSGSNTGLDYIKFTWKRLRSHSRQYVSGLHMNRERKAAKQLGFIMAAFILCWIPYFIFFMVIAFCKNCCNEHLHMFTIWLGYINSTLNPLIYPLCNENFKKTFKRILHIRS
# Chain of human dopamine D2L receptor (P14416 whole entry): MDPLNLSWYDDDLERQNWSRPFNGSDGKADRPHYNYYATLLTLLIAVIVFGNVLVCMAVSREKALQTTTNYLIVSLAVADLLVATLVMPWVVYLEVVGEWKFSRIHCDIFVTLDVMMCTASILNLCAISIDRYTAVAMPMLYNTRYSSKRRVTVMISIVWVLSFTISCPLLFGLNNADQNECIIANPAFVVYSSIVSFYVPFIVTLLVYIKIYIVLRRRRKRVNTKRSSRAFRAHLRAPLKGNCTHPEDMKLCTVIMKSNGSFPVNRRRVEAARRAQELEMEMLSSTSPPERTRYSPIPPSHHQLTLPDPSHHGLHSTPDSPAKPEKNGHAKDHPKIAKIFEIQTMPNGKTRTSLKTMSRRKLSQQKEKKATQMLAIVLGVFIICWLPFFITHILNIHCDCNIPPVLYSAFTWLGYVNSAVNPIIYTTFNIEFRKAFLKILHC
# T2 sequence (P28223 whole entry): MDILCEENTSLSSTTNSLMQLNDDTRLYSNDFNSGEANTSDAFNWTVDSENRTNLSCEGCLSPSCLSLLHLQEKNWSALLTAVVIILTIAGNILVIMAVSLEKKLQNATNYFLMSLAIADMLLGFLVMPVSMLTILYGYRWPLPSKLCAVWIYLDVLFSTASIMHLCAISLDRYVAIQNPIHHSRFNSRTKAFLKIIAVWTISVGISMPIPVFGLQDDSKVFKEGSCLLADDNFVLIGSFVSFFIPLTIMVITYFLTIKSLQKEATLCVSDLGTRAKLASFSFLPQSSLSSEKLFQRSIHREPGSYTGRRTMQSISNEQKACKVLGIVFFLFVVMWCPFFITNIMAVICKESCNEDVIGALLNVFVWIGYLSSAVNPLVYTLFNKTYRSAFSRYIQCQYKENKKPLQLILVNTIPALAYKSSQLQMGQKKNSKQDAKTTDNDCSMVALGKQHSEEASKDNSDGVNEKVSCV
# T4 sequence (P50406 whole entry): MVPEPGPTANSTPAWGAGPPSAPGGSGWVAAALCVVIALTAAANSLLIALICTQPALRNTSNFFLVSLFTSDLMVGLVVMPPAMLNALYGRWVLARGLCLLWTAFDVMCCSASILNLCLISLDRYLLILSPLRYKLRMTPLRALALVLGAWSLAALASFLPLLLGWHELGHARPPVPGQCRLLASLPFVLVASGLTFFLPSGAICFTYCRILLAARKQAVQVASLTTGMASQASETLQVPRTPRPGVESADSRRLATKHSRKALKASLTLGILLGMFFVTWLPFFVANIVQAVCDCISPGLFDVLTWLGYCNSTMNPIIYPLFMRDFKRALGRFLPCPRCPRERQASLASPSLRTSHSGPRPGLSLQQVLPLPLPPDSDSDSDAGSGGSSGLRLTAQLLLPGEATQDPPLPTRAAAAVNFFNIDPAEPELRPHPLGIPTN
# Chain of human recombinant serotonin (5-Hydroxytryptamine) 5-HT7 receptor (P34969 whole entry): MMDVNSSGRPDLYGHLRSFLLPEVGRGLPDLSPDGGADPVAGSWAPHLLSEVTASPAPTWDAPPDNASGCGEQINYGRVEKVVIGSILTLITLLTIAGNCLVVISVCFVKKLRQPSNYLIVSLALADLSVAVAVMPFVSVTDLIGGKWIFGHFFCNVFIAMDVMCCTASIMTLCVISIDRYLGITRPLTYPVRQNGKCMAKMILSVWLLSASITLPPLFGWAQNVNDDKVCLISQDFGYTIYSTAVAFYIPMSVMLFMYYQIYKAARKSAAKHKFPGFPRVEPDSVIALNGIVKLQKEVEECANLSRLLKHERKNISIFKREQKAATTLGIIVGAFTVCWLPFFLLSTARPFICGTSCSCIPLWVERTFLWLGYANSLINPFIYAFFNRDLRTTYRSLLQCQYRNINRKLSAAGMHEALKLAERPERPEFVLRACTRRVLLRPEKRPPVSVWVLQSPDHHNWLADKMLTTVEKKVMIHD
# T1 sequence (P25021 whole entry): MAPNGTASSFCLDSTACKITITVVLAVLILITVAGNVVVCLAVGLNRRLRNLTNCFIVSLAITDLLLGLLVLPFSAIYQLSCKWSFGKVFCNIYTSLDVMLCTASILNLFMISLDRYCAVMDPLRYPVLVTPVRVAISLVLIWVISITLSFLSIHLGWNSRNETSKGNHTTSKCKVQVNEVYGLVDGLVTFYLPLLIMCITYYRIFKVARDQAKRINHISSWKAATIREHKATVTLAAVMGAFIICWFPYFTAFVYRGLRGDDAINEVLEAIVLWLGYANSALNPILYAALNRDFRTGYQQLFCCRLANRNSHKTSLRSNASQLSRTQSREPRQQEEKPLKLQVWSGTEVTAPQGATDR
compound,measurement,setting,value
"C/C(=C\n1c2c(c3cc(Cl)ccc31)CN(C)CC2)c1ccc(F)c(F)c1 [Compound 98, (E)-8-chloro-5-(2-(3,4-difluorophenyl)prop-1-enyl)-2,3,4,5-tetrahydro-2-methyl-1H-pyrido[4,3-b]indole]",inhibition at 1 µM,histamine receptor H1,53%
same,inhibition at 1 µM,[1],99%
same,inhibition at 1 µM,[2],78%
same,inhibition at 1 µM,[3],95%
same,inhibition at 1 µM,[4],100%
same,inhibition at 1 µM,[5],100%
same,inhibition at 1 µM,[6],94%
"C/C(=C\n1c2c(c3cc(Cl)ccc31)CN(C)CC2)c1ccc(Cl)c(Cl)c1 [Compound 103, (E)-8-chloro-5-(2-(3,4-dichlorophenyl)prop-1-enyl)-2,3,4,5-tetrahydro-2-methyl-1H-pyrido[4,3-b]indole]",inhibition at 1 µM,histamine receptor H1,81%
same,inhibition at 1 µM,[1],101%
same,inhibition at 1 µM,[2],49%
same,inhibition at 1 µM,[3],101%
same,inhibition at 1 µM,[4],98%
same,inhibition at 1 µM,[5],89%
same,inhibition at 1 µM,[6],90%
"CN1CCc2c(c3cc(F)ccc3n2CC(C)(O)c2ccncc2)C1 (centres unmarked) [Compound 181, 1-(8-fluoro-2-methyl-3,4-dihydro-1H-pyrido[4,3-b]indol-5(2H)-yl)-2-(pyridin-4-yl)propan-2-ol]",inhibition at 1 µM,histamine receptor H1,0%
same,inhibition at 1 µM,[1],25%
same,inhibition at 1 µM,[2],8%
same,inhibition at 1 µM,[3],77%
same,inhibition at 1 µM,[4],80%
same,inhibition at 1 µM,[5],32%
same,inhibition at 1 µM,[6],30%
"CN1CCc2c(c3cc(Cl)ccc3n2CC(O)c2ccncc2)C1 (centres unmarked) [Compound 183, 2-(8-chloro-2-methyl-3,4-dihydro-1H-pyrido[4,3-b]indol-5(2H)-vyl)-1-(pyridin-4-yl)ethanol]",inhibition at 1 µM,histamine receptor H1,91%
same,inhibition at 1 µM,[1],47%
same,inhibition at 1 µM,[2],15%
same,inhibition at 1 µM,[3],82%
same,inhibition at 1 µM,[4],78%
same,inhibition at 1 µM,[5],72%
same,inhibition at 1 µM,[6],74%
"CN1CCc2c(c3ccc(Cl)cc3n2CC(C)(O)c2ccncc2)C1 (centres unmarked) [Compound 184, 1-(7-chloro-2-methyl-3,4-dihydro-1H-pyrido[4,3-b]indol-5(2H)-yl)-2-(pyridin-4-yl)propan-2-ol]",inhibition at 1 µM,histamine receptor H1,23%
same,inhibition at 1 µM,[1],57%
same,inhibition at 1 µM,[2],1%
same,inhibition at 1 µM,[3],82%
same,inhibition at 1 µM,[4],65%
same,inhibition at 1 µM,[5],31%
same,inhibition at 1 µM,[6],48%
"CN1CCc2c(c3cccc(F)c3n2CC(C)(O)c2ccncc2)C1 (centres unmarked) [Compound 185, 1-(6-fluoro-2-methyl-3,4-dihydro-1H-pyrido[4,3-b]indol-5(2H)-yl)-2-(pyridin-4-yl)propan-2-ol]",inhibition at 1 µM,histamine receptor H1,8%
same,inhibition at 1 µM,[1],29%
same,inhibition at 1 µM,[2],-1%
same,inhibition at 1 µM,[3],82%
same,inhibition at 1 µM,[4],83%
same,inhibition at 1 µM,[5],26%
same,inhibition at 1 µM,[6],41%
"CN1CCc2c(c3ccccc3n2CC(C)(O)c2ccncc2)C1 (centres unmarked) [Compound 186, 1-(2-methyl-3,4-dihydro-1H-pyrido[4,3-b]indol-5(2H)-yl)-2-(pyridin-4-yl)propan-2-ol]",inhibition at 1 µM,histamine receptor H1,1%
same,inhibition at 1 µM,[1],22%
same,inhibition at 1 µM,[2],3%
same,inhibition at 1 µM,[3],74%
same,inhibition at 1 µM,[4],72%
same,inhibition at 1 µM,[5],12%
same,inhibition at 1 µM,[6],37%
"Cc1ccc2c(c1)c1c(n2CC(C)(O)c2ccc(O)cc2)CCN(C)C1 (centres unmarked) [Compound 187, 4-(1-(2,8-dimethyl-3,4-dihydro-1H-pyrido[4,3-b]indol-5(2H)-yl)-2-hydroxypropan-2-yl)phenol]",inhibition at 1 µM,histamine receptor H1,36%
same,inhibition at 1 µM,[1],57%
same,inhibition at 1 µM,[2],35%
same,inhibition at 1 µM,[3],102%
same,inhibition at 1 µM,[4],99%
same,inhibition at 1 µM,[5],98%
same,inhibition at 1 µM,[6],94%
"COc1ccc2c(c1)c1c(n2CC(C)(O)c2ccncc2)CCN(C)C1 (centres unmarked) [Compound 188, 1-(8-methoxy-2-methyl-3,4-dihydro-1H-pyrido[4,3-b]indol-5(2H)-yl)-2-(pyridin-4-yl)propan-2-ol]",inhibition at 1 µM,histamine receptor H1,8%
same,inhibition at 1 µM,[1],13%
same,inhibition at 1 µM,[2],-5%
same,inhibition at 1 µM,[3],50%
same,inhibition at 1 µM,[4],66%
same,inhibition at 1 µM,[5],9%
same,inhibition at 1 µM,[6],45%
"CN1CCc2c(c3cc(Cl)c(Cl)cc3n2CC(C)(O)c2ccncc2)C1 (centres unmarked) [Compound 189, 1-(7,8-dichloro-2-methyl-3,4-dihydro-1H-pyrido[4,3-b]indol-5(2H)-yl)-2-(pyridin-4-yl)propan-2-ol]",inhibition at 1 µM,histamine receptor H1,77%
same,inhibition at 1 µM,[1],85%
same,inhibition at 1 µM,[2],2%
same,inhibition at 1 µM,[3],96%
same,inhibition at 1 µM,[4],91%
same,inhibition at 1 µM,[5],87%
same,inhibition at 1 µM,[6],82%
"CN1CCc2c(c3c(Cl)c(Cl)ccc3n2CC(C)(O)c2ccncc2)C1 (centres unmarked) [Compound 190, 1-(8,9-dichloro-2-methyl-3,4-dihydro-1H-pyrido[4,3-b]indol-5(2H)-yl)-2-(pyridin-4-yl)propan-2-ol]",inhibition at 1 µM,histamine receptor H1,-11%
same,inhibition at 1 µM,[1],9%
same,inhibition at 1 µM,[2],-15%
same,inhibition at 1 µM,[3],71%
same,inhibition at 1 µM,[4],52%
same,inhibition at 1 µM,[5],31%
same,inhibition at 1 µM,[6],47%
"COc1ccc(/C(C)=C/n2c3c(c4cc(C)ccc42)CN(C)CC3)cc1F [Compound 214, (E)-5-(2-(3-fluoro-4-methoxyphenyl)prop-1-enyl)-2,8-dimethyl-2,3,4,5-tetrahydro-1H-pyrido[4,3-b]indole]",inhibition at 1 µM,histamine receptor H1,23%
same,inhibition at 1 µM,[1],100%
same,inhibition at 1 µM,[2],83%
same,inhibition at 1 µM,[3],93%
same,inhibition at 1 µM,[4],95%
same,inhibition at 1 µM,[5],94%
same,inhibition at 1 µM,[6],97%
"C/C(=C\n1c2c(c3cc(Cl)ccc31)CN(C)CC2)c1cc(Cl)cc(Cl)c1 [Compound 215, (E)-8-chloro-5-(2-(3,5-dichlorophenyl)prop-1-enyl)-2-methyl-2,3,4,5-tetrahydro-1H-pyrido[4,3-b]indole]",inhibition at 1 µM,histamine receptor H1,89%
same,inhibition at 1 µM,[1],98%
same,inhibition at 1 µM,[2],36%
same,inhibition at 1 µM,[3],97%
same,inhibition at 1 µM,[4],96%
same,inhibition at 1 µM,[5],97%
same,inhibition at 1 µM,[6],90%
"C/C(=C\n1c2c(c3cc(F)ccc31)CN(C)CC2)c1ccncc1 [Compound 216, (E)-8-fluoro-2-methyl-5-(2-(pyridin-4-yl)prop-1-enyl)-2,3,4,5-tetrahydro-1H-pyrido[4,3-b]indole]","Histamine Binding (1 μM) H1, percent inhibition of specific binding",histamine receptor H1; 1 μM,49%
same,inhibition at 1 µM,histamine receptor H1,47%
same,inhibition at 1 µM,[1],61%
same,"Inhibition of ligand binding, Dopamine D2L",[2]; 1 µM,98%
same,inhibition at 1 µM,[2],97%
same,inhibition at 0.1 µM,"[3]; read-out: Inhibition of ligand binding, Serotonin 5-HT2A (percent inhibition of specific binding), compound at 0.1 μM",98%
same,inhibition at 1 µM,[3],99%
same,inhibition at 0.1 µM,[4]; compound at 0.1 μM,83%
same,inhibition at 1 µM,[4],94%
same,inhibition at 0.1 µM,[5]; compound at 0.1 μM,100%
same,inhibition at 1 µM,[5],104%
same,inhibition at 0.1 µM,[6]; compound at 0.1 μM,66%
same,inhibition at 1 µM,[6],79%
